Laboratory results published in patent publication US12533361B2, “Use of polaprezinc in preparing drug for treating castration-resistant prostate cancer” (Jiangnan University, priority 2021, dated 2026).

Experiments:
L-DTP (EPI) cells = test: CCK8 survival of drug-resistant L-DTP (EPI) cells, single and combined drugs; type: cell-based; settings: drug-resistant L-DTP (EPI) cells produced by continuously adding EPI for 9 days, optimal concentration of Pola
Description: (§1) Furthermore, CCK8 is used and drugs are used in drug-resistant L-DTP cells in a single form and combined form separately.
(§2) After the cells adhered to walls, a series of Pola from high to low concentrations were prepared. A most optimal concentration of the Pola was found. […] Cl values of the L-DTP cells were calculated by Calcusyn software.

L-DTP (Enza) cells = test: CCK8 survival of drug-resistant L-DTP (Enza) cells, single and combined drugs; type: cell-based; settings: drug-resistant L-DTP (Enza) cells produced by continuously adding Enza for 9 days, optimal concentration of Pola
Description: as §1, §2

[1] = test system: mouse model of spontaneous prostate cancer with overexpression of C-MYC (Hi-Myc); test: Hi-Myc mouse model of prostate cancer, prostate weight and HE staining (Example 4); type: in vivo; settings: for Average prostate weight of mice: 30 days administration after relapse caused by drug resistance, gavage once every three days, Enza 10 mg/Kg, Pola 20 mg/Kg, combined 10 + 20 mg/Kg, NC group 100.1 mg; for average prostate weight: 10 mg/Kg gavage once every three days
Description: A mouse model of spontaneous prostate cancer with overexpression of C-MYC (Hi-Myc) was established. […] A part of the mice were sacrificed and their prostate cancers were photographed and weighed. […]. The remaining mice were continuously administered according to the above method for 30 days. […]. […] At this time, the mice were divided into different groups immediately to study effects of combined use of drugs.
(§3) The mice were correspondingly gavaged. […] The mice were sacrificed and their prostate cancers were photographed, weighed and subjected to immunohistochemistry.

PRDX5 = test: Immunohistochemistry of PRDX5 in prostate tissue sections (Example 4); type: in vivo, mouse; settings: 30 days administration after relapse, Enza 10 mg/Kg, Pola 20 mg/Kg, combined 10 + 20 mg/Kg, NC group 61.7
Description: as §3

[2] = test system: mouse model of spontaneous prostate with overexpression of C-MYC (Hi-Myc); test: Hi-Myc mouse model of prostate cancer, prostate weight (Example 5); type: in vivo; settings: for Average prostate weight of mice: 30 days administration after relapse, gavage once every three days, Enza 30 mg/Kg, Pola 30 mg/Kg, combined Enza 10 mg/Kg + Pola 20 mg/Kg, NC group 105.4 mg
Description: A mouse model of spontaneous prostate with overexpression of C-MYC (Hi-Myc) was established. […] A part of the mice were sacrificed and their prostate cancers were photographed and weighed. […] The remaining mice were continuously administered according to the above method for 30 days. […] The mice were correspondingly gavaged. […] The mice were sacrificed and their prostate cancers were photographed, weighed and subjected to immunohistochemistry.

AR = test: Immunohistochemistry of AR in prostate tissue sections (Example 4); type: in vivo, mouse; settings: 30 days administration after relapse, Enza 10 mg/Kg, Pola 20 mg/Kg, combined 10 + 20 mg/Kg, NC group 94
Description: as §3

[3] = 10 mg/Kg gavage once every three days for 30 days

Structure (SMILES)	inhibition rate (L-DTP (EPI) cells)	inhibition rate (L-DTP (Enza) cells)	prostate weight compared with the NC group [1, 3]	Average prostate weight of mice [1]	average prostate weight ([1]; after 30 days of continuous administration, NC group 85.3 mg)	average prostate weight ([1]; after 60 days of continuous administration, relapse, NC group 95.6 mg)	Expression amount of PRDX5/% (PRDX5)	prostate weight compared with the NC group [2, 3]	Average prostate weight of mice [2]	effect on drug-resistant CRPC (prostate weight, in words) ([1]; 30 days administration after relapse, compared with single use / between single groups)	Expression amount of AR/% (AR)
CC(C)(c1ccc(OCC(O)CO)cc1)c1ccc(OCC(O)CCl)cc1 (stereo not drawn) [EPI, EPI-001]	no obvious inhibitory effect	–	–	–	–	–	–	–	–	–	–
CNC(=O)c1ccc(N2C(=S)N(c3ccc(C#N)c(C(F)(F)F)c3)C(=O)C2(C)C)cc1F [Enza, enzalutamide]	–	no obvious inhibitory effect	reduced by half	83.3 mg	41.2 mg	78.4 mg	93.6%	reduced by half	85.9 mg	–	–
NCCC(=O)[N-][C@@H](Cc1c[nH]cn1)C(=O)[O-].[Zn+2] [Pola, polaprezinc]	no obvious inhibition rate	no obvious inhibition rate	–	80.625 mg	–	–	74.2%	–	81.2 mg	does not have a significant effect	70.4%
